Where no end group is shown, it is not given here.

The source of these data is EP0479899B1, “VASODILATORY AND IMMUNE SUPPRESSANT PEPTIDES” (THE PRESIDENT AND FELLOWS OF HARVARD COLLEGE, priority 1989, dated 1991).

The subject of this assay is Human macrophages. The assay is described as follows: H₂O₂ production by IFN-γ activated macrophages (scopoletin fluorometric assay). The assay is classed as cell-based. The settings on record: 3 hrs preincubation, up to 1000 ng/ml (2.5 X 10⁻⁷M); IFN-γ 200 units/ml; 3 days.

Take “Calcitonin: neuropeptide derived from the same gene as CGRP, available commercially (CGNLSTCMLGTYTQDFNKFHTFPQTAIGVGAP; ends and bridges not checked; cysteine pairing not given here; UniProt P01258 85-116, looked up)”: the “inhibition of H₂O₂ production by macrophages” value was “inhibit H₂O₂ production by macrophages to a degree similar to that seen with CGRP”.
